In US9457052B2, “Allograft tolerance induction” (The United States of America as Represented by the …, priority 2013, dated 2016):

Test system: C57BL/6 responder splenocytes with irradiated BALB/c stimulatory cells
Assay: Allo-MLR lymphocyte proliferation assay (3H-thymidine) with AMPs
Assay type: cell-based, mouse
Settings: 20 μM indomethacin alone
Experimental: FIG. 2. […] (A) Naive C57BL/6 splenocytes (as responders cells) were cultured 1:1 with irradiated (3 Gy) naïve BALB/c stimulatory cells. […] Cell proliferation was analyzed by 3H-thymidine incorporation during the last 18 h of a 5 day culture. Results are expressed as the mean percent alloproliferation inhibition of quadruplicate cultures. Data are representative of two independent experiments. (B) Cytokine analysis of 48 h culture supernatants obtained from mixed lymphocyte reaction assays. Data are presented as means±SD (n=3; P<0.05). (C) Representative flow cytometric analysis of splenic Tregs following 5 days of alto-MLR culture in the absence and presence of AMP co-culture. […] Quadrants are set according to isotype controls. Results shown are representative of three separate experiments. FIG. 3. […] Results are expressed as the mean value±SD. […] Bars indicate mean fold increase±SD mRNA expression level of the indicated gene relative the housekeeping gene GAPDH and normalized to untreated AMP cutlures. (D) Supernatants from allo-MLR/AMP co-cultures inhibit MLR lymphocyte proliferation. […] Cell proliferation was analyzed by ^3H-thymidine incorporation during the last 18 h of a 5 day culture. Results are expressed as the mean percent alloproliferation inhibition of quadruplicate cultures. […]

COc1ccc2c(c1)c(CC(=O)O)c(C)n2C(=O)c1ccc(Cl)cc1 [indomethacin]
allo T-cell proliferation: significantly inhibit
